Common to all, as to test: growth of human tumour cells (NCI), 48 h
Test [1] concerns Hs-578T.
Test [2] relates to KM12.
Test [3] concerns HL-60.
The test system of test [4] is SN12C.
Test [5] relates to RXF 393.
Test [6] has as its system A498.
The test system of test [7] is SK-MEL-2.
The subject of test [8] is NCI-H23.
The subject of test [9] is OVCAR-8.
The test system of test [10] is M14.
Test [11] has as its system SW-620.
In test [12] the test system is MCF7.
For test [13], the system named is OVCAR-3.
The test system of test [14] is OVCAR-4.
The subject of test [15] is SNB-19.
In test [16] the test system is SF-268.
In test [17] the test system is ACHN.
In test [18] the test system is EKVX.
Test [19] has as its system Malme-3M.
For test [20], the system named is K562.

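Compound exposure: 48 hours, 5 concentrations, 96-well plates. GI50 marks 50% less growth.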 Active and inactive are the calls of the source. No stated cut-off is given here; in the data, active = GI50 up to about 1.1 µM and inactive = higher. Bounds are passed on as bounds.

Take `COc1cc2cc(C(=O)N3CC(COS(C)(=O)=O)c4c3cc(N)c3ccccc43)[nH]c2c(OC)c1OC` (stereo not drawn): the GI50 in test [1] is 0.252 µM (active); in test [2] it was 0.0194 µM (active); in test [3] it was < 0.01 µM (active); in test [4], 0.0221 µM (active); in [5], 0.0177 µM (active); in test [6], 0.0219 µM (active). Besides, the GI50 in test [7] is 0.0716 µM (active); in [8] it was < 0.0179 µM (active); in [9] it was 0.0136 µM (active); in test [10], 0.0169 µM (active); in [11], 0.0148 µM (active); in test [12] it was < 0.0122 µM (active). Also, the GI50 is 0.0404 µM (active) in test [13]; < 0.0376 µM (active) in [14]; < 0.0491 µM (active) in [15]; 0.0188 µM (active) in test [16]; < 0.01 µM (active) in [17]; 0.0216 µM (active) in [18].

As to `COc1cc2c(cc1O)-c1c(OC)c(O)cc3c1C(C2)N(C)CC3` (stereo not drawn), the GI50 in test [1], in test [2], in [3], in test [4], in [5] and in test [6] was > 100 µM (inactive) throughout. Moreover, the GI50 in test [7], in test [8], in [9], in [10], in test [11] and in test [12] was > 100 µM (inactive) in each case. Further, the GI50 in test [13], in test [14], in test [15], in test [16], in [17] and in test [18] was > 100 µM (inactive) throughout.

Consider `O=C1CCC2(CCO1)OCCO2`, for which the GI50 in [1], in [2], in test [3], in test [4], in test [5] and in test [7] was > 100 µM (inactive) in each case. In addition, the GI50 in [8], in [9], in test [10], in test [19], in [11] and in [12] was > 100 µM (inactive) each time. Moreover, the GI50 in [13], in test [14], in [15], in test [16], in [20] and in test [17] was > 100 µM (inactive) throughout. In addition, in [18], the GI50 is > 100 µM (inactive).

For `CCOP(=O)(OCC)/C(=C/NC(=S)c1ccncc1)C(=O)OC`, the GI50 is > 100 µM (inactive) in test [1]; > 100 µM (inactive) in test [2]; 53.5 µM (inactive) in test [3]; > 100 µM (inactive) in [4]; > 100 µM (inactive) in [5]; > 100 µM (inactive) in test [7]. In addition, the GI50 in test [8], in test [9], in test [10], in [11], in test [12] and in test [13] was > 100 µM (inactive) in each case. Further, the GI50 in test [14], in [15], in test [16], in [20], in test [17] and in [18] was > 100 µM (inactive) in each case.

Turning to `COc1ccc(O)c(/C=N\Nc2ccccc2)c1`, the GI50 was 30.1 µM (inactive) in [1]; 3.17 µM (inactive) in [3]; 29.6 µM (inactive) in [4]; 84.3 µM (inactive) in test [5]; 15.5 µM (inactive) in test [6]; 4.8 µM (inactive) in test [7]. Also, the GI50 in test [8] was 10.3 µM (inactive); in [9], 22.1 µM (inactive); in test [10] it was 19 µM (inactive); in test [11], 5.41 µM (inactive); in [12], 14.8 µM (inactive); in [14] it was 8.45 µM (inactive). Further, the GI50 in [15] is 30.8 µM (inactive); in test [16], 13.1 µM (inactive); in test [20] it was 3.19 µM (inactive); in test [17], 7.85 µM (inactive); in test [18], 39.7 µM (inactive).

Take `O=c1[nH]nc(Cc2ccc([N+](=O)[O-])cc2)n1CCO`: the GI50 in test [1], in test [2], in [3], in test [4], in test [6] and in test [7] was > 100 µM (inactive) in each case. The GI50 in test [8], in test [9], in [10], in test [19], in [11] and in [12] was > 100 µM (inactive) each time. The GI50 in [13], in test [14], in test [15], in [16], in test [20] and in test [17] was > 100 µM (inactive) in each case. Also, in [18], the GI50 was > 100 µM (inactive).

As to `CCOC(=O)/C=C/CC(C)(C)CCOC(C)=O`, the GI50 in test [1], in [2], in test [3], in test [4], in test [5] and in test [7] was > 10 µM (inactive) throughout. Also, the GI50 in [8], in test [9], in test [10], in test [11], in test [12] and in test [13] was > 10 µM (inactive) each time. The GI50 in test [14], in test [15], in [16], in test [20] and in [17] was > 10 µM (inactive) in each case.

In the case of `COc1ccc(C=C2C(=O)NC(=S)NC2=O)c2ccccc12`, the GI50 is 28.2 µM (inactive) in test [1]; 44.3 µM (inactive) in test [2]; 24.3 µM (inactive) in test [3]; 20.7 µM (inactive) in test [5]; 0.224 µM (active) in test [6]; 21.2 µM (inactive) in test [7]. For the same compound, the GI50 in test [8] is 32.8 µM (inactive); in [9], 33.4 µM (inactive); in test [10], 45 µM (inactive); in [11], 33.4 µM (inactive); in test [12], 22.5 µM (inactive); in [13] it was 24 µM (inactive). For the same compound, the GI50 is > 100 µM (inactive) in test [14]; 34.5 µM (inactive) in [16]; 43.4 µM (inactive) in test [20]; 97.5 µM (inactive) in test [17]; 82 µM (inactive) in test [18].

Regarding `Cc1nc2c(Br)cc(Br)cc2c(=O)n1-c1ccccc1N`, the GI50 in test [1] was 25.9 µM (inactive); in [2], 51.5 µM (inactive); in test [3], 19.9 µM (inactive); in test [4], 29.9 µM (inactive); in [6], 36.9 µM (inactive); in test [7] it was 19.2 µM (inactive). For the same compound, the GI50 is 62.5 µM (inactive) in test [9]; 35.4 µM (inactive) in test [10]; 28.4 µM (inactive) in [19]; 44.6 µM (inactive) in test [11]; 38.9 µM (inactive) in test [12]; 63.5 µM (inactive) in test [13]. Besides, the GI50 is > 100 µM (inactive) in test [14]; 48.2 µM (inactive) in [15]; 50.1 µM (inactive) in [16]; 29.8 µM (inactive) in [20]; 39.7 µM (inactive) in test [17]; 41 µM (inactive) in [18].

For `CCCNC(=S)N/C=C1\C(=O)Nc2ccccc2C1=O`, the GI50 in [1], in [2], in test [3], in test [4], in [5] and in test [6] was > 100 µM (inactive) each time. Besides, the GI50 in test [7], in [8], in test [9], in test [10], in [11] and in test [12] was > 100 µM (inactive) each time. In addition, the GI50 in test [13], in test [14], in test [15], in [16], in test [20] and in test [17] was > 100 µM (inactive) in each case. Also, in test [18], the GI50 was > 100 µM (inactive).

`COc1ccc2c(c1)N=C1CSC(c3c(Cl)cccc3[N+](=O)[O-])N1C2` (stereo not drawn): the GI50 was 45.4 µM (inactive) in [1]; 33.5 µM (inactive) in test [2]; 31 µM (inactive) in test [3]; 53.7 µM (inactive) in [4]; 29.5 µM (inactive) in test [5]; 35.4 µM (inactive) in test [7]. Moreover, the GI50 in test [8] is 45.3 µM (inactive); in test [9] it was 46.9 µM (inactive); in test [10] it was 51.6 µM (inactive); in [19] it was 44.3 µM (inactive); in test [11], 36.6 µM (inactive); in test [12], 30.1 µM (inactive). Further, the GI50 in [14] is 56.6 µM (inactive); in test [15] it was > 100 µM (inactive); in [16], 63.4 µM (inactive); in test [20], 35.4 µM (inactive); in test [17], 36.1 µM (inactive); in test [18], 40.3 µM (inactive).

Values taken from ChEMBL document CHEMBL1201862, “PubChem BioAssay data set” (2004).
